The values below come from patent publication US7638639B2, “Substituted pyrrolidine and related compounds” (Theravance, Inc., priority 2003, dated 2009).

Experiment [1] has as its target T1, hM2 muscarinic receptor subtype (Homo sapiens, UniProt P08172).
T1 construct: expressed in transfected cells
T1 sequence (P08172 1-466): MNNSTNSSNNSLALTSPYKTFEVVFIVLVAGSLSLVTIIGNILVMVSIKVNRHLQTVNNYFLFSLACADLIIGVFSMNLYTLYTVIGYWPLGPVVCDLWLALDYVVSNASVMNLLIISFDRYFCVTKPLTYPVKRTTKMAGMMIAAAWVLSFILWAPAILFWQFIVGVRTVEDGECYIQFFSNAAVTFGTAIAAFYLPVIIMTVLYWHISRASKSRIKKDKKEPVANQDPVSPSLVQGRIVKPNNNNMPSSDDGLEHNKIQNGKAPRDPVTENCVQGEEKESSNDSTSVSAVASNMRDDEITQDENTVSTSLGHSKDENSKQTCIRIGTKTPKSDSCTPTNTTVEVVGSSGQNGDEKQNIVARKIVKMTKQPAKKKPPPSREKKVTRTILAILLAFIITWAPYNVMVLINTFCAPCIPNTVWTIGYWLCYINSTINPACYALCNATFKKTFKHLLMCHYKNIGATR
The experiment is described as follows: Radioligand binding assay ([3H]-NMS displacement), hM2. The following applies: for Ki: CHO cell membranes, [3H]-NMS 1 nM, read-out: hM2 binding affinity (Ki); for Δ hM2: change in binding affinity relative to compound of the invention: ratio of hM2 Ki values. On the procedure:
(§1) A. Membrane Preparation from Cells Expressing hM1, hM2, hM3 and hM4 Muscarinic Receptor Subtypes
(§2) CHO (Chinese hamster ovary) cell lines stably expressing cloned human hM1, hM2, hM3 and hM4 muscarinic receptor subtypes, respectively, were grown to near confluency in medium consisting of HAM's F-12 supplemented with 10% FBS (Fetal Bovine Serum) and 250 μg/mL Geneticin. The cells were grown in a 5% CO2, 37° C. incubator and lifted with 2 mm EDTA in dPBS. Cells were collected by 5 minute centrifugation at 650×g, and cell pellets were either stored frozen at −80° C. or membranes were prepared immediately. For membrane preparation, cell pellets were resuspended in lysis buffer and homogenized with a Polytron PT-2100 tissue disrupter (Kinematica AG; 20 seconds×2 bursts). Crude membranes were centrifuged at 40,000×g for 15 minutes at 4° C. The membrane pellet was then resuspended with resuspension buffer and homogenized again with the Polytron tissue disrupter. The protein concentration of the membrane suspension was determined by the method described in Lowry, O. et al., 1951, […]: 193, 265. All membranes were stored frozen in aliquots at −80° C. or used immediately. Aliquots of prepared hM5 receptor membranes were purchased directly from Perkin Elmer and stored at −80° C. until use.
(§3) B. Radioligand Binding Assay on Muscarinic Receptor Subtypes hM1, hM2, hM3, hM4 and hM5
(§4) Radioligand binding assays were performed in 96-well microtiter plates in a total assay volume of 100 μL. CHO cell membranes stably expressing either the hM1, hM2, hM3, hM4 or hM5 muscarinic subtype were diluted in assay buffer to the following specific target protein concentrations (μg/well): 10 μg for hM1, 10-15 μg for hM2, 10-20 μg for hM3, 10-20 μg for hM4, and 10-12 μg for hM5. The membranes were briefly homogenized using a Polytron tissue disruptor (10 seconds) prior to assay plate addition. Saturation binding studies for determining KD values of the radioligand were performed using L-[N-methyl-3H]scopolamine methyl chloride ([^3H]-NMS) (TRK666, 84.0 Ci/mmol, Amersham Pharmacia Biotech, Buckinghamshire, England) at concentrations ranging from 0.001 nM to 20 nM. Displacement assays for determination of Ki values of test compounds were performed with [^3H]-NMS at 1 nM and eleven different test compound concentrations. The test compounds were initially dissolved to a concentration of 400 μM in dilution buffer and then serially diluted 5× with dilution buffer to final concentrations ranging from […] to […]. The addition order and volumes to the assay plates were as follows: 25 μL radioligand, 25 μL diluted test compound, and 50 μL membranes. Assay plates were incubated for 60 minutes at 37° C. Binding reactions were terminated by rapid filtration over GF/B glass fiber filter plates (PerkinElmer Inc., Wellesley, Mass.) pre-treated in 1% BSA. Filter plates were rinsed three times with wash buffer (10 mm HEPES) to remove unbound radioactivity. Plates were then air dried, and 50 μL Microscint-20 liquid scintillation fluid (PerkinElmer Inc., Wellesley, Mass.) was added to each well. The plates were then counted in a PerkinElmer Topcount liquid scintillation counter (PerkinElmer Inc., Wellesley, Mass.). Binding data were analyzed by nonlinear regression analysis with the GraphPad Prism Software package (GraphPad Software, Inc., San Diego, Calif.) using the one-site competition model. Ki values for test compounds were calculated from observed IC50 values and the KD value of the radioligand using the Cheng-Prusoff equation (Cheng Y; Prusoff W H. (1973) Biochemical Pharmacology, 22(23):3099-108). Ki values were converted to pKi values to determine the geometric mean and 95% confidence intervals. These summary statistics were then converted back to Ki values for data reporting.

Experiment [2] addresses T2, hM3 muscarinic receptor subtype (Homo sapiens, UniProt P20309).
T2 construct: expressed in transfected cells
Briefly: Radioligand binding assay ([3H]-NMS displacement), hM3. The note with it: for Δ hM3: change in binding affinity relative to compound of the invention: ratio of hM3 Ki values. On the procedure: as §1, §2, §3, §4

Setting [3] is: CHO cell membranes, [3H]-NMS 1 nM, read-out: hM3 binding affinity (Ki).
Where [4] appears, read: radioligand displacement, read-out: Ki value for hM3.

SMILES strings stand for the structures. Read-outs that look alike come from different tables or passages of the source. A value given as a limit tells only on which side of the number the result lay.

T2 sequence (P20309 whole entry): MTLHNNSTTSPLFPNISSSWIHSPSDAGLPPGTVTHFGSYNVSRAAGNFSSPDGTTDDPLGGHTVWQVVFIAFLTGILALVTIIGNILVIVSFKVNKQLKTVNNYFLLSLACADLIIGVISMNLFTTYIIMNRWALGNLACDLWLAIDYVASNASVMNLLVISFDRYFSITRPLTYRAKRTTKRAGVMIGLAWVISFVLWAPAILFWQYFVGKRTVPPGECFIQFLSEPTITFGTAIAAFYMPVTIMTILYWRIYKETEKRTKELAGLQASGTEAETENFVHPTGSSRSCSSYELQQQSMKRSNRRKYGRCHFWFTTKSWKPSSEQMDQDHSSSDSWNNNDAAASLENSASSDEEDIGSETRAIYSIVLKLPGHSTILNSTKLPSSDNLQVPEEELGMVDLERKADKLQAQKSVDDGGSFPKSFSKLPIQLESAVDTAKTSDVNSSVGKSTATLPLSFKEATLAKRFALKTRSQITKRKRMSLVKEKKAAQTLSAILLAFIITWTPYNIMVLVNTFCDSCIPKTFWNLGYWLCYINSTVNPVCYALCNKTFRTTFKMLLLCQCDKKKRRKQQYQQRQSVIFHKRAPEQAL

In the case of `CN(C)CCCCCCCCN1CC[C@@H](C(C(N)=O)(c2ccccc2)c2ccccc2)C1` [Comp. Ex. A, 2-[(S)-1-(8-Dimethylaminooctyl)pyrrolidin-3-yl]-2,2-diphenylacetamide, reference compound], in experiment [1], the inhibition constant Ki was 18 nM and the “Δ hM2: change in binding affinity relative to compound of the invention” value is recorded as “×39”. The inhibition constant Ki in experiment [2] (setting [3]) was 2.5 nM. Also, in experiment [2], the “Δ hM3: change in binding affinity relative to compound of the invention” value is given as “×52”.

For the molecule `CN(C)CCCCCCCCCN1CC[C@@H](C(C(N)=O)(c2ccccc2)c2ccccc2)C1` [Comp. Ex. B, 2-[(S)-1-(9-Dimethylaminononyl)pyrrolidin-3-yl]-2,2-diphenylacetamide, reference compound], the inhibition constant Ki worked out at 120 nM in experiment [1] and 25 nM in experiment [2] (setting [3]).

On to `CC(CCCCCCCN1CC[C@@H](C(C(N)=O)(c2ccccc2)c2ccccc2)C1)N(C)CCO` (stereo partly drawn) [Comp. Ex. C, 2-{(S)-1-[8-N-(2-Hydroxyethyl)-N-methylaminononyl]pyrrolidin-3-yl}-2,2-diphenylacetamide, reference compound], for which the inhibitory constant (Ki) amounted to 83 nM in experiment [1] and 73 nM in experiment [2] (setting [3]).

On to `NCCCCCCCCN1CC[C@@H](C(C(N)=O)(c2ccccc2)c2ccccc2)C1` [Comp. Ex. D, 2-[(S)-1-(8-Aminooctyl)pyrrolidin-3-yl]-2,2-diphenylacetamide, reference compound], for which the inhibition constant (Ki) in experiment [1] amounted to 150 nM; in experiment [2] (setting [3]) it was 50 nM.

As for `NC(=O)C(c1ccccc1)(c1ccccc1)[C@@H]1CCN(CCCCCCCCNCCO)C1` [Example 8, 2-{(S)-1-[8-(2-Hydroxyethyl)aminooctyl]pyrrolidin-3-yl}-2,2-diphenylacetamide], in experiment [1], the Ki was 13 nM and the “Δ hM2: change in binding affinity relative to compound of the invention” value is listed as “×6.3”. In addition, in experiment [2] (setting [3]), the Ki came out at 5.1 nM. In experiment [2], the “Δ hM3: change in binding affinity relative to compound of the invention” value is “×14”.

Consider `CNCCCCCCCCCN1CC[C@@H](C(C(N)=O)(c2ccccc2)c2ccccc2)C1` [Example 14, 2-[(S)-1-(9-Methylaminnonyl)pyrrolidin-3-yl]-2,2-diphenylacetamide], for which the inhibition constant Ki in experiment [1] was 1.7 nM; in experiment [2] (setting [3]), 0.66 nM; in experiment [2] (setting [4]) it was < 50 nM. Moreover, the “Δ hM2: change in binding affinity relative to compound of the invention” value in experiment [1] was “×70”. Also, in experiment [2], the “Δ hM3: change in binding affinity relative to compound of the invention” value is “×37”.

Regarding `NC(=O)C(c1ccccc1)(c1ccccc1)[C@@H]1CCN(CCCCCCCCCNCc2ccccc2)C1` [Example 26, 2-[(S)-1-(9-Benzylaminononyl)pyrrolidin-3-yl]-2,2-diphenylacetamide], in experiment [2] (setting [4]), the Ki was < 50 nM.

As to `CNCCCCCCCCN1CC[C@H](C(C(N)=O)(c2ccccc2)c2ccccc2)C1` [Example 27, 2-[(R)-1-(8-Methylaminooctyl)pyrrolidin-3-yl]-2,2-diphenylacetamide], in experiment [2] (setting [4]), the Ki is < 50 nM.

Take `NC(=O)C(c1ccccc1)(c1ccccc1)[C@H]1CCN(CCCCCCCCNCc2ccccc2)C1` [Example 39, 2-[(R)-1-(8-Benzylaminooctyl)pyrrolidin-3-yl]-2,2-diphenylacetamide]: the inhibition constant Ki in experiment [2] (setting [4]) is < 50 nM.

Usually Ki stands for the dissociation constant of the complex between target and ligand, obtained from inhibition or displacement.
